Assay results published in PubChem BioAssay (NCI).
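Interpolation was linear, between the two tested concentrations surrounding the appropriate level; five concentrations were tested over 48 hours in 96-well plates. TGI: total growth inhibition.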

Assays:
Test in all cases: DTP human tumour cell line panel, 48 h
[1] = test system: SW-620 colon
[2] = test system: HCT-116 colon
[3] = test system: RPMI-8226 leukemia
[4] = test system: HT29 colon
[5] = test system: SK-MEL-5 melanoma
[6] = test system: A498 renal
[7] = test system: SNB-19 CNS
[8] = test system: OVCAR-4 ovarian
[9] = test system: TK-10 renal
[10] = test system: DLD-1 colon
[11] = test system: HOP-18 NSCLC
[12] = test system: K-562 leukemia
[13] = test system: MALME-3M melanoma
[14] = test system: NCI-H226 lung
[15] = test system: MOLT-4 leukemia
[16] = test system: KM12 colon
[17] = test system: OVCAR-3 ovarian
[18] = test system: UACC-257 melanoma
[19] = test system: SK-OV-3 ovarian
[20] = test system: DMS 114 small cell lung
[21] = test system: UACC-62 melanoma
[22] = test system: RXF-631 renal
[23] = test system: 786-0 renal
[24] = test system: XF 498 CNS
[25] = test system: SK-MEL-28 melanoma
[26] = test system: KM20L2 colon
[27] = test system: SNB-78 CNS
[28] = test system: LOX IMVI melanoma
[29] = test system: CCRF-CEM leukemia
[30] = test system: OVCAR-8 ovarian
[31] = test system: M19-MEL melanoma
[32] = test system: NCI-H522 lung
[33] = test system: SNB-75 CNS
[34] = test system: DMS 273 small cell lung
[35] = test system: U251 CNS
[36] = test system: SF-268 CNS
[37] = test system: ACHN renal
[38] = test system: SF-539 CNS
[39] = test system: UO-31 renal
[40] = test system: SN12C renal
[41] = test system: RXF 393 renal
[42] = test system: IGROV1 ovarian
[43] = test system: SK-MEL-2 melanoma
[44] = test system: A549 NSCLC
[45] = test system: HCT-15 colon
[46] = test system: NCI-H23 lung
[47] = test system: COLO 205 colon
[48] = test system: LXFL 529 NSCLC
[49] = test system: EKVX NSCLC
[50] = test system: SF-295 CNS
[51] = test system: NCI-H460 lung
[52] = test system: OVCAR-5 ovarian
[53] = test system: CAKI-1 renal
[54] = test system: SR leukemia
[55] = test system: HL-60(TB) leukemia
[56] = test system: HOP-62 NSCLC
[57] = test system: M14 melanoma
[58] = test system: HOP-92 NSCLC

Structure (SMILES): CC1OC(=O)N2CCC=CC12 (stereo not drawn)
- TGI [1]: > 100 µM
- TGI [2]: > 100 µM
- TGI [3]: > 100 µM
- TGI [4]: > 100 µM
- TGI [5]: > 100 µM
- TGI [6]: > 100 µM
- TGI [7]: > 100 µM
- TGI [8]: > 100 µM
- TGI [9]: > 100 µM
- TGI [10]: > 100 µM
- TGI [11]: > 100 µM
- TGI [12]: > 100 µM
- TGI [13]: > 100 µM
- TGI [14]: > 100 µM
- TGI [15]: > 100 µM
- TGI [16]: > 100 µM
- TGI [17]: > 100 µM
- TGI [18]: > 100 µM
- TGI [19]: > 100 µM
- TGI [20]: > 100 µM
- TGI [21]: > 100 µM
- TGI [22]: > 100 µM
- TGI [23]: > 100 µM
- TGI [24]: > 100 µM
- TGI [25]: > 100 µM
- TGI [26]: > 100 µM
- TGI [27]: > 100 µM
- TGI [28]: > 100 µM
- TGI [29]: > 100 µM
- TGI [30]: > 100 µM
- TGI [31]: > 100 µM
- TGI [32]: > 100 µM
- TGI [33]: > 100 µM
- TGI [34]: > 100 µM
- TGI [35]: > 100 µM
- TGI [36]: > 100 µM
- TGI [37]: > 100 µM
- TGI [38]: > 100 µM
- TGI [39]: > 100 µM
- TGI [40]: > 100 µM
- TGI [41]: > 100 µM
- TGI [42]: > 100 µM
- TGI [43]: > 100 µM
- TGI [44]: > 100 µM
- TGI [45]: > 100 µM
- TGI [46]: > 100 µM
- TGI [47]: > 100 µM
- TGI [48]: > 100 µM
- TGI [49]: > 100 µM
- TGI [50]: > 100 µM
- TGI [51]: > 100 µM
- TGI [52]: > 100 µM

Structure (SMILES): C#C[C@@H](CCCC)OC(=O)N[C@H](C)c1ccccc1
- TGI [1]: > 100 µM
- TGI [2]: > 100 µM
- TGI [3]: 87.6 µM
- TGI [4]: > 100 µM
- TGI [5]: 46.5 µM
- TGI [7]: > 100 µM
- TGI [8]: > 100 µM
- TGI [9]: > 100 µM
- TGI [10]: > 100 µM
- TGI [11]: > 100 µM
- TGI [53]: > 100 µM
- TGI [12]: > 100 µM
- TGI [14]: 82 µM
- TGI [15]: > 100 µM
- TGI [54]: > 100 µM
- TGI [16]: > 100 µM
- TGI [17]: > 100 µM
- TGI [18]: > 100 µM
- TGI [19]: > 100 µM
- TGI [20]: > 100 µM
- TGI [21]: > 100 µM
- TGI [22]: > 100 µM
- TGI [23]: > 100 µM
- TGI [24]: > 100 µM
- TGI [25]: > 100 µM
- TGI [55]: 42 µM
- TGI [26]: > 100 µM
- TGI [27]: > 100 µM
- TGI [28]: > 100 µM
- TGI [29]: > 100 µM
- TGI [30]: > 100 µM
- TGI [31]: > 100 µM
- TGI [33]: 97.5 µM
- TGI [34]: > 100 µM
- TGI [35]: > 100 µM
- TGI [37]: > 100 µM
- TGI [39]: 65.4 µM
- TGI [56]: > 100 µM
- TGI [40]: > 100 µM
- TGI [42]: 52.6 µM
- TGI [43]: 53.1 µM
- TGI [44]: > 100 µM
- TGI [48]: > 100 µM
- TGI [57]: > 100 µM
- TGI [49]: > 100 µM
- TGI [50]: > 100 µM
- TGI [51]: > 100 µM
- TGI [52]: > 100 µM

Structure (SMILES): O=C(N/C(=C\c1ccc(F)cc1)c1nc2ccccc2[nH]1)c1ccccc1
- TGI [1]: > 100 µM
- TGI [2]: > 100 µM
- TGI [3]: > 100 µM
- TGI [4]: > 100 µM
- TGI [5]: > 100 µM
- TGI [6]: > 100 µM
- TGI [7]: > 100 µM
- TGI [8]: > 100 µM
- TGI [9]: > 100 µM
- TGI [10]: > 100 µM
- TGI [58]: > 100 µM
- TGI [11]: > 100 µM
- TGI [53]: > 100 µM
- TGI [12]: > 100 µM
- TGI [13]: > 100 µM
- TGI [14]: > 100 µM
- TGI [15]: > 100 µM
- TGI [16]: > 100 µM
- TGI [17]: > 100 µM
- TGI [18]: > 100 µM
- TGI [19]: > 100 µM
- TGI [20]: > 100 µM
- TGI [21]: > 100 µM
- TGI [22]: > 100 µM
- TGI [23]: > 100 µM
- TGI [24]: > 100 µM
- TGI [25]: > 100 µM
- TGI [26]: > 100 µM
- TGI [27]: > 100 µM
- TGI [28]: > 100 µM
- TGI [29]: > 100 µM
- TGI [30]: > 100 µM
- TGI [31]: > 100 µM
- TGI [32]: > 100 µM
- TGI [33]: > 100 µM
- TGI [35]: > 100 µM
- TGI [36]: > 100 µM
- TGI [37]: > 100 µM
- TGI [38]: > 100 µM
- TGI [39]: > 100 µM
- TGI [40]: > 100 µM
- TGI [41]: > 100 µM
- TGI [42]: > 100 µM
- TGI [43]: > 100 µM
- TGI [44]: > 100 µM
- TGI [45]: > 100 µM
- TGI [46]: > 100 µM
- TGI [47]: > 100 µM
- TGI [48]: > 100 µM
- TGI [57]: > 100 µM
- TGI [49]: > 100 µM
- TGI [51]: > 100 µM
- TGI [52]: > 100 µM
